In US7728012B2, “Carboxamide compounds and their use as calpain inhibitors” (Abbott GmbH & Co. KG, priority 2006, dated 2010):

Assays:
Format in all cases: biochemical
[1] = molecular target: T1, recombinant human cathepsin S (Homo sapiens, UniProt P25774); assay: Cathepsin S kinetic fluorescence enzyme inhibition assay; conditions: selectivity ratio versus calpain I
T1 construct: purchased Calbiochem 219343; host or cells: E. coli
In short: (§1)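 Cathepsin B (0.25 nM, human liver) with 100 μM Z-Phe-Arg-AMC; L (1 nM, human liver) with 2 μM Z-Phe-Arg-AMC; S (0.5 nM, recombinant) with 20 μM Z-Val-Val-Arg-AMC. pH 6.0 MES buffer, 2.5 mM L-cysteine, room temperature. Kinetic fluorescence (ex 390/em 460 nm); apparent Ki from IC50 by Cheng-Prusoff.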

[2] = molecular target: T2, cathepsin L isolated from human liver (Homo sapiens, UniProt P07711); assay: Cathepsin L kinetic fluorescence enzyme inhibition assay; conditions: selectivity ratio versus calpain I
T2 construct: cathepsin L—isolated from human liver; purchased Calbiochem 219402; host or cells: human liver (tissue isolate)
In short: as §1

[3] = molecular target: T3, cathepsin K activated from recombinant human procathepsin K (Homo sapiens, UniProt P43235); assay: Cathepsin K kinetic fluorescence enzyme inhibition assay; conditions: selectivity ratio versus calpain I
T3 construct: purchased Calbiochem 342001; host or cells: E. coli
T3 sequence (P43235 115-329): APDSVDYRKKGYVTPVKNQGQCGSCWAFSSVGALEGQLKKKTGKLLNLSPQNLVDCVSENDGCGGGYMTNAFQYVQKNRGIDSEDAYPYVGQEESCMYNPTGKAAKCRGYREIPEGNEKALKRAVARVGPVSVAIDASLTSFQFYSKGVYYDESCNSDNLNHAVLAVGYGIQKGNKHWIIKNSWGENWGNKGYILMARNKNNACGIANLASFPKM
Method: (§2) The following solutions and buffers were employed: • HBS (for 40 ml): 800 μl M HEPES; 2.16 ml 100 mM KCl; 4.8 ml 1M NaCl; 3.59 ml 5% glucose; 60 μl μM MgSO4; 400 μl 100 mM Na pyruvate, 28.19 ml water; pH 7.2-7.5. • lysis buffer (for 20 ml): 400 μl M Tris pH 8.2; 2.74 ml 1M NaCl; 520 μl 0.5M EDTA; 2 ml 10% triton X-100; 0.8 ml (=1:25) CompletePlus (1 tablet/2 ml H2O); 200 μl 100 mM Pefabloc; 13.34 ml water, pH 8.2. • TBST (10×) (for 1 l): 100 mM Tris (12.1 g); 1.5M NaCl (87 g); 1% Tween 20 (10 g), adjusted to pH 8. I Enzyme Inhibition In Vitro: • Testing for blockade of the corresponding enzymic activities was carried out by means of kinetic fluorescence assays (excitation 390 nm, emission 460 nm). • Apparent Ki values were calculated from the experimentally determined IC50 values by the Cheng-Prussoff relation assuming a reversible competitive enzyme inhibition. The Km values of the substrates used under the assay conditions indicated above were: 90 μM (Z-Phe-Arg-AMC, cathepsin B), 10 μM (Z-Gly-Pro-Arg-AMC, cathepsin K), 2 μM (Z-Phe-Arg-AMC, cathepsin L), and 30 μM (Z-Val-Val-Arg-AMC, cathepsin S). • The indicated Ki values are averages of the inhibition constants calculated on the basis of 2 to 4 independent dose-effect plots.
(§3) The following assays were used: • 1. Calpain I: • 20 nM calpain-I—isolated from human erythrocytes (Calbiochem #208713), 100 μM Suc-Leu-Tyr-AMC (Bachem #1-1355) as substrate in buffer with 62 mM imidazole, 0.3 mM CaCl2, 0.10% CHAPS, 0.05% BSA, 1 mM DTT at pH 7.3 and room temperature. • 2. Cathepsin B: • 0.25 nM cathepsin B—isolated from human liver (Calbiochem #219362), 100 μM Z-Phe-Arg-AMC (Bachem #I-1160) as substrate 50 mM MES, 2 mM EDTA, 0.05% Brij 35, 2.5 mM L-cysteine, pH 6.0, room temperature. • 3. Cathepsin K: • 3 nM cathepsin K—activated from recombinant human procathepsin K from E. coli (Calbiochem #342001), 10 μM Z-Gly-Pro-Arg-AMC (Biomol #P-142) as substrate in 50 mM MES, 2 mM EDTA, 0.05% Brij 35, 2.5 mM L-cysteine, pH 6.0, room temperature. • 4. Cathepsin L: • 1 nM cathepsin L—isolated from human liver (Calbiochem #219402), 2 μM Z-Phe-Arg-AMC (Bachem #1-1160) as substrate in 50 mM MES, 2 mM EDTA, 0.05% Brij 35, 2.5 mM L-cysteine, pH 6.0, room temperature. • 5. Cathepsin S: • 0.5 nM recombinant human cathepsin S from E. coli (Calbiochem #219343), 20 μM Z-Val-Val-Arg-AMC (Bachem #1-1540) as substrate in 50 mM MES, 2 mM EDTA, 0.05% Brij 35, 2.5 mM L-cysteine, pH 6.0, room temperature. • The results of the in vitro determination are indicated in Table 1. The following abbreviations are used in Table 1: • The “Calpain activity” column, ++ stands for a calpain Ki (Ki(calpain)) of ≦40 nM and + means: 40 nM<Ki(Calpain)≦100 nM. • The “Sel. cat. B” column indicates the Ki(cathepsin B)/Ki(calpain) ratio. In this connection, ++ means a Ki(cathepsin B)/Ki(calpain) ratio of ≧30 and + means 10≦Ki(cathepsin B)/Ki(calpain)<30. • The “Sel. cat. K” column indicates the Ki(cathepsin K)/Ki(calpain) ratio. In this connection, ++ means a Ki(cathepsin K)/Ki(calpain) ratio of ≧30 and + means 10≦Ki(cathepsin K)/Ki(calpain)<30. • The “Sel. cat. L” column indicates the Ki(cathepsin L)/Ki(calpain) ratio. In this connection, ++ means a Ki(cathepsin L)/Ki(calpain) ratio of ≧50 and + means 30≦Ki(cathepsin L)/Ki(calpain)<50. • The “Sel. cat. S” column indicates the Ki(cathepsin S)/Ki(calpain) ratio. In this connection, ++ means a Ki(cathepsin S)/Ki(calpain) ratio of ≧100 and + means 50≦Ki(cathepsin S)/Ki(calpain)<100.

[4] = molecular target: T4, calpain-I isolated from human erythrocytes (Homo sapiens, UniProt P07384); assay: Calpain I kinetic fluorescence enzyme inhibition assay; conditions: apparent Ki from IC50 by Cheng-Prussoff; average of 2 to 4 dose-effect plots
T4 construct: calpain-I—isolated from human erythrocytes; purchased Calbiochem 208713; host or cells: human erythrocytes (tissue isolate)
T4 sequence (P07384 1-714): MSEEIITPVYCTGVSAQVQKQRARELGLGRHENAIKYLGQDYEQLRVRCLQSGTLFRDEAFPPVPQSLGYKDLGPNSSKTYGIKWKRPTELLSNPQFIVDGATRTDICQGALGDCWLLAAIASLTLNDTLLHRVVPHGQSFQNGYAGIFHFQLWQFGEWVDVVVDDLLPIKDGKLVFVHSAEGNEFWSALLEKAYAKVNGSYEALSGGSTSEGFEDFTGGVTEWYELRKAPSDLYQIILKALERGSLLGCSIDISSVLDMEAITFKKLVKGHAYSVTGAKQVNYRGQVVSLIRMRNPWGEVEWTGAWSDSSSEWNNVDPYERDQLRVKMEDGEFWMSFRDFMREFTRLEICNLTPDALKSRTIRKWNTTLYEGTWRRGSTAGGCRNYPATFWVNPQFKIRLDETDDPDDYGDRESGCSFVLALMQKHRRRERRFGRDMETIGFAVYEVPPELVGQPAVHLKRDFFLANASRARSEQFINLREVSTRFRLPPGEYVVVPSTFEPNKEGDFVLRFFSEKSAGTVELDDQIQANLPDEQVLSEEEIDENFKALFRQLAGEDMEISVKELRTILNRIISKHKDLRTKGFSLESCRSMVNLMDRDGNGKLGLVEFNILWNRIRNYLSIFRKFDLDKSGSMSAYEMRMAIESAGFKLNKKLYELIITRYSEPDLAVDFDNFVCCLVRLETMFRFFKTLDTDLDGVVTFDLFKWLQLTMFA
T4 sequence (P04632 1-268 partner): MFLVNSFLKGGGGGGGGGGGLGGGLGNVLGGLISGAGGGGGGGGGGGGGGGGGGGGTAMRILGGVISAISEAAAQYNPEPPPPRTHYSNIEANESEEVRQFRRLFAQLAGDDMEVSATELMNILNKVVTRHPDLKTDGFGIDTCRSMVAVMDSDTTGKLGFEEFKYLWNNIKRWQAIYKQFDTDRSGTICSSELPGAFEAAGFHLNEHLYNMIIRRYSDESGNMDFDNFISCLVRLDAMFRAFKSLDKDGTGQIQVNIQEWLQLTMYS

[5] = molecular target: T5, cathepsin B isolated from human liver (Homo sapiens, UniProt P07858); assay: Cathepsin B kinetic fluorescence enzyme inhibition assay; conditions: selectivity ratio versus calpain I
T5 construct: cathepsin B—isolated from human liver; purchased Calbiochem 219362; host or cells: human liver (tissue isolate)
Method: as §2, §3

T1 sequence (P25774 115-331): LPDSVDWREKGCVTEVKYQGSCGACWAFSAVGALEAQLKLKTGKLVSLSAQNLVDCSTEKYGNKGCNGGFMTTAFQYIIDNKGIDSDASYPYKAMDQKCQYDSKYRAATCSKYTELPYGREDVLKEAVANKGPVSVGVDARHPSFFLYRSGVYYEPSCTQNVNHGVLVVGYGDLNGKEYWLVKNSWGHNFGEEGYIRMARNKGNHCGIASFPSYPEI
T2 sequence (P07711 114-333): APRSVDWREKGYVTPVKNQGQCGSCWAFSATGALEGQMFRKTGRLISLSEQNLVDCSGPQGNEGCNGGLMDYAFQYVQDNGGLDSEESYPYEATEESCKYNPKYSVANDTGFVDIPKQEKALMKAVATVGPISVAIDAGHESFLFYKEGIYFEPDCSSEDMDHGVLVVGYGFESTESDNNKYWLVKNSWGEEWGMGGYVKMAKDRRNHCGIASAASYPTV

Structure (SMILES) | Sel cat. S (Ki(cathepsin S)/Ki(calpain) ratio) [1] | Sel cat. L (Ki(cathepsin L)/Ki(calpain) ratio) [2] | Sel cat. K (Ki(cathepsin K)/Ki(calpain) ratio) [3] | Ki [4] | Sel cat. B (Ki(cathepsin B)/Ki(calpain) ratio) [5]
Cl.NC(=O)C(=O)C(Cc1ccccc1)NC(=O)c1cccnc1-n1ccc(-c2ccc(N3CCOCC3)cc2)n1 (centres unmarked) [Example 29, N-(3-Amino-1-benzyl-2,3-dioxopropyl)-2-[3-(4-morpholin-4-ylphenyl)-1H-pyrazol-1-yl]nicotinamide hydrochloride] | ++ (Ki(cathepsin S)/Ki(calpain) ratio of ≧100) | ++ (Ki(cathepsin L)/Ki(calpain) ratio of ≧50) | + (10≦Ki(cathepsin K)/Ki(calpain)<30) | ≤ 40 nM | –
CN1CCN(c2ccc(-c3ccn(-c4ncccc4C(=O)NC(Cc4ccccc4)C(=O)C(N)=O)n3)cc2)CC1 (centres unmarked) [Example 68, N-(3-Amino-1-benzyl-2,3-dioxopropyl)-2-{3-[4-(4-methylpiperazin-1-yl)phenyl]-1H-pyrazol-1-yl}nicotinamide] | ++ (Ki(cathepsin S)/Ki(calpain) ratio of ≧100) | – | + (10≦Ki(cathepsin K)/Ki(calpain)<30) | 40 to 100 nM | –
NC(=O)C(=O)C(Cc1ccccc1)NC(=O)c1cccnc1-n1ccc(-c2ccc3c(c2)CCO3)n1 (centres unmarked) [Example 75, N-(3-Amino-1-benzyl-2,3-dioxopropyl)-2-[3-(2,3-dihydrobenzo[b]furan-5-yl)-1H-pyrazol-1-yl]nicotinamide] | ++ (Ki(cathepsin S)/Ki(calpain) ratio of ≧100) | ++ (Ki(cathepsin L)/Ki(calpain) ratio of ≧50) | + (10≦Ki(cathepsin K)/Ki(calpain)<30) | 40 to 100 nM | –
N#Cc1cnc(-n2ccc(-c3ccccc3F)n2)c(C(=O)NC(Cc2ccccc2)C(=O)C(N)=O)c1 (centres unmarked) [Example 188, N-[3-Amino-2,3-dioxo-1-(phenylmethyl)propyl]-5-cyano-2-[3-(2-fluorophenyl)-1H-pyrazol-1-yl]pyridine-3-carboxamide] | – | ++ (Ki(cathepsin L)/Ki(calpain) ratio of ≧50) | ++ (Ki(cathepsin K)/Ki(calpain) ratio of ≧30) | 40 to 100 nM | –
NC(=O)C(=O)C(CC1CCCCC1)NC(=O)c1cccnc1-n1ccc(-c2ccccc2)n1 (centres unmarked) [Example 66, N-[3-Amino-1-(cyclohexylmethyl)-2,3-dioxopropyl]-2-(3-phenyl-1H-pyrazol-1-yl)nicotinamide] | ++ (Ki(cathepsin S)/Ki(calpain) ratio of ≧100) | + (30≦Ki(cathepsin L)/Ki(calpain)<50) | + (10≦Ki(cathepsin K)/Ki(calpain)<30) | ≤ 40 nM | –
NC(=O)C(=O)C(Cc1ccccc1)NC(=O)c1cccnc1-n1ccc(C2CCCCC2)n1 (centres unmarked) [Example 192, N-[3-Amino-2,3-dioxo-1-(phenylmethyl)propyl]-2-(3-cyclohexyl-1H-pyrazol-1-yl)pyridine-3-carboxamide] | ++ (Ki(cathepsin S)/Ki(calpain) ratio of ≧100) | ++ (Ki(cathepsin L)/Ki(calpain) ratio of ≧50) | + (10≦Ki(cathepsin K)/Ki(calpain)<30) | 40 to 100 nM | –
NC(=O)C(=O)C(Cc1ccccc1)NC(=O)c1cccnc1-n1ccc(-c2cccc(N3CCCC3)c2)n1 (centres unmarked) [Example 74, N-(3-Amino-1-benzyl-2,3-dioxopropyl)-2-[3-(3-pyrrolidin-1-ylphenyl)-1H-pyrazol-1-yl]nicotinamide] | ++ (Ki(cathepsin S)/Ki(calpain) ratio of ≧100) | – | ++ (Ki(cathepsin K)/Ki(calpain) ratio of ≧30) | ≤ 40 nM | ++ (Ki(cathepsin B)/Ki(calpain) ratio of ≧30)
